Measured values from paper PMC10423218, “Molecular mechanism underlying regulation of Arabidopsis CLCa transporter by nucleotides and phospholipids” (Nature Communications, 2023).

Legend:
AtCLCa [1] = target: T1, AtCLCa (Arabidopsis thaliana, UniProt P92941); experiment: whole-cell patch clamp, HEK293T; type: cell-based; design: gene CLC-A; full-length, homodimer; patch clamp: pKH3 vector in HEK293T; settings: 5 mM in pipette (cytosolic side); nitrate bath; pH 7.4
T1 sequence (P92941 1-775): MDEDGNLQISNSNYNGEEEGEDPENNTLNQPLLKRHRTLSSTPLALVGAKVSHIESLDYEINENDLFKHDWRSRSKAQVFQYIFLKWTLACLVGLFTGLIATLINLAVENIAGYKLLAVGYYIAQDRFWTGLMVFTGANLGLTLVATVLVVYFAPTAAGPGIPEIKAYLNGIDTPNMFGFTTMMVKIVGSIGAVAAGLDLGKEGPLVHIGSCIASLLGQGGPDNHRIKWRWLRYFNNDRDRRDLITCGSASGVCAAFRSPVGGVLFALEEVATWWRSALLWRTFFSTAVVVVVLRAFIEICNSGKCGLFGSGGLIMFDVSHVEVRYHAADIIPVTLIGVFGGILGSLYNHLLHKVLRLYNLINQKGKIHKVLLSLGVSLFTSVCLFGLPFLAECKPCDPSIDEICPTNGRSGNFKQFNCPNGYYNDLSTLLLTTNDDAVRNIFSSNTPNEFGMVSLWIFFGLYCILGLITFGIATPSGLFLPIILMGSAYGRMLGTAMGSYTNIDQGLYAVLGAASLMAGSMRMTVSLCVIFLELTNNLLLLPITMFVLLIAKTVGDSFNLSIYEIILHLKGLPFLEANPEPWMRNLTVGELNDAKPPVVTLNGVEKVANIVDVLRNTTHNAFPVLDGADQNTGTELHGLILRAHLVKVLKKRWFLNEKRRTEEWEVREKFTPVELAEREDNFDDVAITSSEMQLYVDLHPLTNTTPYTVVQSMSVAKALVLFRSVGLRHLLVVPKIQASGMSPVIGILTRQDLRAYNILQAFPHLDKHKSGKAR

AtCLCa [2] = target: T1, AtCLCa; experiment: whole-cell patch clamp, HEK293T; type: cell-based; design: gene CLC-A; full-length, homodimer; patch clamp: pKH3 vector in HEK293T; settings: pipette (cytosolic side); pH 7.4
AtCLCa [3] = target: T1, AtCLCa; experiment: cryo-EM structure, […] Å; type: binding; design: gene CLC-A; full-length, homodimer; structures: Pichia pastoris GS115, C-terminal GFP-6xHis tag cut by TEV, MSP1D1 nanodiscs; patch clamp: pKH3 vector in HEK293T; settings: Scen and Sint sites; 150 mM NaNO3, pH 8.0
[4] = target: the molecule itself; experiment: cryo-EM structure; AtCLCa in MSP1D1 nanodiscs with soybean polar lipid; 20 mM Tris pH 8.0 with 150 mM NaCl (AtCLCa-Cl-) or 150 mM NaNO3 (AtCLCa-NO3-); C2 symmetry applied

## Nc1ncnc2c1ncn2[C@@H]1O[C@H](COP(=O)(O)OP(=O)(O)O)[C@@H](O)[C@H]1O [ADP]
AtCLCa [1]
  inhibition of NO3^- currents at 5 mM: ADP produced a weak inhibition while AMP induced a negligible inhibition

## Nc1ncnc2c1ncn2[C@@H]1O[C@H](COP(=O)(O)O)[C@@H](O)[C@H]1O [AMP]
AtCLCa [1]
  inhibition of NO3^- currents at 5 mM: ADP produced a weak inhibition while AMP induced a negligible inhibition

## Nc1ncnc2c1ncn2[C@@H]1O[C@H](COP(=O)(O)OP(=O)(O)OP(O)(O)=S)[C@@H](O)[C@H]1O [ATP-γ-S]
AtCLCa [2]
  inhibition of currents: ATP-γ-S induced an inhibition comparable with ATP

## O=[N+]([O-])O [NO3^−]
AtCLCa [3]
  cryo-EM structure, 3.2 Å: Scen and Sint were found of fair densities, which likely corresponds to the bound NO3^−

B1: Arabidopsis thaliana CLCa (AtCLCa) transporter (natural protein, UniProt P92941 1-775, looked up)
chain: MDEDGNLQISNSNYNGEEEGEDPENNTLNQPLLKRHRTLSSTPLALVGAKVSHIESLDYEINENDLFKHDWRSRSKAQVFQYIFLKWTLACLVGLFTGLIATLINLAVENIAGYKLLAVGYYIAQDRFWTGLMVFTGANLGLTLVATVLVVYFAPTAAGPGIPEIKAYLNGIDTPNMFGFTTMMVKIVGSIGAVAAGLDLGKEGPLVHIGSCIASLLGQGGPDNHRIKWRWLRYFNNDRDRRDLITCGSASGVCAAFRSPVGGVLFALEEVATWWRSALLWRTFFSTAVVVVVLRAFIEICNSGKCGLFGSGGLIMFDVSHVEVRYHAADIIPVTLIGVFGGILGSLYNHLLHKVLRLYNLINQKGKIHKVLLSLGVSLFTSVCLFGLPFLAECKPCDPSIDEICPTNGRSGNFKQFNCPNGYYNDLSTLLLTTNDDAVRNIFSSNTPNEFGMVSLWIFFGLYCILGLITFGIATPSGLFLPIILMGSAYGRMLGTAMGSYTNIDQGLYAVLGAASLMAGSMRMTVSLCVIFLELTNNLLLLPITMFVLLIAKTVGDSFNLSIYEIILHLKGLPFLEANPEPWMRNLTVGELNDAKPPVVTLNGVEKVANIVDVLRNTTHNAFPVLDGADQNTGTELHGLILRAHLVKVLKKRWFLNEKRRTEEWEVREKFTPVELAEREDNFDDVAITSSEMQLYVDLHPLTNTTPYTVVQSMSVAKALVLFRSVGLRHLLVVPKIQASGMSPVIGILTRQDLRAYNILQAFPHLDKHKSGKAR
notes: Arabidopsis thaliana CLCa, Uniprot P92941, full-length gene; C-terminal GFP-6xHis tag was fused by a short linker with a TEV protease site and cut off with TEV; residues of the linker may be left; also called AtCLCa-Cl-; AtCLCa-NO3-; source: Pichia pastoris GS115, purified (anti-GFP nanobody resin, TEV digestion, SEC), reconstituted into MSP1D1 nanodiscs; not shown: GFP, C-terminal, cleaved; …
[4]
  stoichiometry N: 2
